Data as given in patent US8673850B2, “PCSK9 inhibitors and methods of use thereof” (Institut de Recherches Cliniques de Montreal, priority 2008, dated 2014).

Assays:
PCSK9-V5 [1] = target: T1, PCSK9-V5 (Homo sapiens, UniProt Q8NBP7); test: Far Western blot with PCSK9-V5 conditioned media; format: binding; set-up: made in house; host or cells: CHO-K1 cells (conditioned medium, not purified)
Description: Lysates (20 to 30 μg protein), media or purified AnxA2-(His)6 were heated in reducing or non-reducing Laemmli sample buffer, resolved by SDS-PAGE on 8% glycine gels and electro-transferred onto nitrocellulose membranes (GE Healthcare). Following 1 h incubation in 5% skim milk in Tris-Buffered Saline-0.1% Tween (TBST), membranes where incubated with conditioned media of CHO-K1 cells overexpressing either an empty vector (pIRES-V5), PC5A-V5, CHRD-V5, pIRES-D374Y, PCSK9-V5 or its V5-tagged mutants, or incubated with purified AnxA2-(His)6 for 3 h at room temperature. […] For competition experiments, 10 μg of His-tagged PCSK9 or CHRD were added to the PCSK9-V5 media before Far Western blotting. For PCSK9 binding requirements with the ˜33 kDa protein, 1M NaCl, 10 mg/ml heparin, 1M NaCl+10 mg/ml heparin, or 100 mM EDTA were added to the PCSK9-V5 conditioned media used for Far Western blotting.
Wild type human Annexin A2 (AnxA2) (ATCC #MGC-2257) and Annexin A1 (AnxA1) (ATCC #MGC-5095) were purchased from ATCC and subcloned into NheI/SacI digested pIRES2-EGFP vector. An HA epitope ([…]) was fused by PCR mutagenesis at the C-terminus of both AnxA1 and AnxA2. Two-steps PCRs were performed on AnxA2 cDNA to introduce point mutations (N62Q; S64A; K28S+D34N+E36S; R37S+E43H+K47M; 77RRTKK (SEQ ID NO: 26)>AATAK (SEQ ID NO: 27); ^77RRTKK (SEQ ID NO: 26)>AATAA (SEQ ID NO: 28); ^77RRTKKELASALK (SEQ ID NO: 29)>^77AATAAELASALA (SEQ ID NO: 30); 80KKELA (SEQ ID NO: 31)>GKPLD (SEQ ID NO: 32)), or amino acid (aa) deletions (Δ2-24, aa 2-24; ΔR1, aa 37-108; ΔR2, aa 109-192; ΔR3, aa 193-268; ΔR4, aa 269-339; Δ25-36, aa 25-36; Δ37-48, aa 37-48; Δ49-61, aa 49-61; Δ62-75, aa 62-75; Δ37-66, aa 37-66; Δ74-88, aa 74-88; Δ82-88, aa 82-88; Δ89-101, aa 89-101; Δ102-108, aa 102-108) into pIRES2-AnxA2-EGFP vector (see Table 3 above). In addition, using PCR, the AnxA2 segment aa 49-75 was swapped with the corresponding AnxA1 segment aa 58-84 [AnxA1 (aa 58-84)>AnxA2 (aa 49-75)]. Similar swaps were performed for the corresponding AnxA2 sequence with AnxA1 (AnxA1>AnxA2: aa 25-27; aa 28-30; aa 31-33; aa 34-36; aa 37-39; aa 40-42; aa 43-45; aa 46-48; aa 49-75; aa 49-61; aa 62-75). All final cDNA constructs were verified by DNA sequencing.
Target sequence in this assay (Q8NBP7 153-692): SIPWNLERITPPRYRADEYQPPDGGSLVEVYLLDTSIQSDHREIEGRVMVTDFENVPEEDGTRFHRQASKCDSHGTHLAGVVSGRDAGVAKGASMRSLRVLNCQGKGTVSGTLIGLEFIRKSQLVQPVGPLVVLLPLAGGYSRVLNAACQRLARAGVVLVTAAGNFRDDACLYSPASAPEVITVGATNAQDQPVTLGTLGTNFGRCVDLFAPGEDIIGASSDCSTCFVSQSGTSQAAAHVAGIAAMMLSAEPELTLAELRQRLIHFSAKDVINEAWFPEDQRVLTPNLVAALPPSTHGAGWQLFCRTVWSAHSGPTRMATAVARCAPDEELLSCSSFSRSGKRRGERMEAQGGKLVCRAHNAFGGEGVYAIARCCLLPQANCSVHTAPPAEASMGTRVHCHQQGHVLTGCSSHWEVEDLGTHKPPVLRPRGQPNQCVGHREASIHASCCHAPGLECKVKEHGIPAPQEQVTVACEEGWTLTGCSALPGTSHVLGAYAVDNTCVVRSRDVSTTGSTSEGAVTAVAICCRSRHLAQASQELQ
Target sequence in this assay (Q8NBP7 31-152 partner limits assumed): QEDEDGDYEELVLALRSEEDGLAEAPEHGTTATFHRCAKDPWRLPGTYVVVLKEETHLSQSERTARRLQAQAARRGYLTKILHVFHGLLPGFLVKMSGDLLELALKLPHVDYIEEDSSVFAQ

[2] = system: PCSK9-induced LDLR degradation; test: LDLR Western blot of HepG2 cells incubated with PCSK9 conditioned media with or without purified AnxA2; format: cell-based, human
Description: (§1) HepG2, HuH7, COS-1, BSC40 and HEK293 cell were grown in Dulbecco's modified Eagle's medium (DMEM) with 10% fetal bovine serum (FBS; Gibco), whereas CHO-K1 and CHO-K1 mutant Pgsd-677 cells that lack heparan sulfate proteoglycans^26 were grown in Ham's F12:DMEM (50:50) media with 10% FBS. Y1 mouse adrenal cells were grown in F12K medium with 15% horse serum and 2.5% FBS. All cells were maintained at 37° C. under 5% CO2. At 80-90% confluence, HuH7 and CHO-K1 cells were transiently transfected with Lipofectamine™ 2000 (Invitrogen), HEK293 cells were transfected with Effectene™ (Qiagen) and HepG2 cells were transfected with Fugene™ HD (Roche). […] For analysis of the various AnxA2 mutants in HEK293 cells, 24 h post-transfection, the cells were washed and then incubated for another 24 h in complete medium containing 50 μM of the proteasome inhibitor ALLN (Calbiochem). Stable transfectants of shRNA-AnxA2 were obtained in HuH7 cells following puromycin selection.
Western blotting experiments were made on samples that were reduced in Laemmli buffer, heated and resolved on 8% glycine SDS-PAGE gels. Separated proteins were then electro-transferred onto nitrocellulose, and probed with HRP-conjugated anti-V5 or anti-HA tags or with primary antibodies. […] Quantitation of band intensity was done with the ImageJ™ software version 1.37 (Wayne Rasband, National Institutes of Health, Bethesda, Md.). […]

PCSK9 = target: T2, PCSK9 (Homo sapiens, UniProt Q8NBP7); test: Cell surface PCSK9 immunofluorescence on CHO-K1 cells overexpressing the LDLR; format: cell-based; conditions: 1 μg purified PCSK9, 4° C., 5 or 20 μg purified AnxA2
T2 construct: purchased Bristol-Myers Squibb (gift, not bought); host or cells: added to CHO-K1 cells overexpressing the LDLR
Description: (§2) For immuno-cytochemistry, cells were plated on glass bottom culture dishes (MatTek) and then transfected the following day. Twenty-four hours post-transfection, the cells were washed with DMEM, incubated for an additional 20 h without serum and then washed 3 times with PBS. Cell surface labelings were made under non-permeabilizing conditions by fixation with 3.7% formaldehyde for 10 min at room temperature. Cells were then washed in PBS, incubated for 5 min in 150 mM glycine, washed once in PBS and incubated for 30 min in 1% bovine serum albumin in PBS. Cells were incubated overnight at 4° C. with primary antibodies and then washed 4× with PBS. […] After several washes in PBS, cells were covered with 5% 1,4-diazabicyclo[2.2.2]octane (Sigma) in PBS/glycerol 90% and immunofluorescence analyses were performed with a Zeiss LSM-510 confocal microscope.
Finally, addition of 1 μg of purified PCSK9 to CHO-K1 cells overexpressing the LDLR at 4° C. […] Therefore, it was deduced that because of its interaction with the CHRD AnxA2 reduces the level of cell surface PCSK9 likely bound to the LDLR. Without being bound by this hypothesis, PCSK9's reduced binding to LDLR induces a more rapid internalization of PCSK9 into the cell.

PCSK9-V5 [3] = target: T1, PCSK9-V5; test: Hexa-His pull-down assay; format: binding; set-up: made in house; host or cells: CHO-K1 cells (conditioned medium, not purified); conditions: 20 μg protein immobilized on cobalt chelate resin
Description: 20 μg of purified AnxA2-(His)6 or AnxA1-(His)6 or no proteins (for negative control) were immobilized onto a cobalt chelate resin (Thermo Scientific). The resin was then washed several times with 40 mM immidazole and incubated overnight at 4° C. with 800 μl of conditioned media from PCSK9-V5-transfected CHO-K1 cells containing 40 mM immidazole. The resin was then washed several times with immidazole (40 mM), heated in reducing Laemmli sample buffer and centrifuged. Supernatants were analyzed by Western blot as described above using the anti-V5-HRP or anti-His-HRP antibodies.
Target sequence in this assay (Q8NBP7 153-692): as the sequence (Q8NBP7 153-692) above
Target sequence in this assay (Q8NBP7 31-152 partner limits assumed): as the sequence (Q8NBP7 31-152 partner limits assumed) above

PCSK9-LDLR interaction = PCSK9-LDLR interaction (Homo sapiens, UniProt Q8NBP7); test: AlphaScreen PCSK9-LDLR interaction assay; format: binding
Description: AlphaScreen® (Perkin Elmer) streptavidin donor beads were coated with purified biotin-conjugated PCSK9 and AlphaScreen® nickel chelate acceptor beads were coated with purified His6-conjugated LDLR ectodomain. Competition in the AlphaScreen® PCSK9-LDLR interaction assay was measured, in the presence of increasing concentrations of AnxA2-derived peptides, as a reduction of fluorescence.

LDLR [4] = test: LDLR Western blot of HepG2 cells transfected with AnxA2; format: cell-based, human
Description: as §1
(§3) Western blotting experiments were made on samples that were reduced in Laemmli buffer, heated and resolved on 8% glycine SDS-PAGE gels. Separated proteins were then electro-transferred onto nitrocellulose, and probed with HRP-conjugated anti-V5 or anti-HA tags or with primary antibodies. […] Quantitation of band intensity was done with the ImageJ™ software version 1.37 (Wayne Rasband, National Institutes of Health, Bethesda, Md.).

LDLR [5] = test: LDLR Western blot of transfected HEK293 cells; format: cell-based, human; conditions: HEK293 cells (negligible PCSK9), with or without p11
Description: as §1, §3

LDLR [6] = test: Cell surface LDLR immunofluorescence of transfected HepG2 cells; format: cell-based, human
Description: as §2

[7] = system: PCSK9-enhanced LDLR degradation; test: LDLR Western blot of CHO-K1 cells co-transfected with PCSK9 and AnxA2; format: cell-based; conditions: PCSK9 alone reduced LDLR by ~30%
Description: as §1, §3

PCSK9-V5 [8] = target: T1, PCSK9-V5; test: Co-immunoprecipitation in co-transfected CHO-K1 cells; format: binding; set-up: expressed in transfected cells; host or cells: CHO-K1 cells co-transfected with AnxA1-HA, AnxA2-HA or AnxA2-HA and p11; conditions: co-expression in CHO-K1 cells
Description: For immunoprecipitation cell lysates were incubated overnight at 4° C. with anti-V5-agarose beads (Sigma) and washed 5 times with cold lysis buffer.
Target sequence in this assay (Q8NBP7 153-692): as the sequence (Q8NBP7 153-692) above

Chain of PCSK9-LDLR interaction (Q8NBP7 153-692): as above
Chain of PCSK9-LDLR interaction (Q8NBP7 31-152 partner limits assumed): as the sequence (Q8NBP7 31-152 partner limits assumed) above
T2 sequence (Q8NBP7 153-692): as the sequence (Q8NBP7 153-692) above
T2 sequence (Q8NBP7 31-152 partner limits assumed): as the sequence (Q8NBP7 31-152 partner limits assumed) above

AnxA2-(His)6: purified His-tagged Annexin A2 purchased from EMD biosciences
PCSK9 binding to purified protein by Far Western blot (PCSK9-V5 [1]; reducing and non-reducing conditions): binds in a dose-dependant manner
level of LDLR ([2]; HepG2, media of non-transfected cells, endogenous PCSK9): increased the level of LDLR
PCSK9-enhanced LDLR degradation ([2]; HepG2, ~20 h, PCSK9 conditioned media plus 5 ug/ml purified AnxA2-(His)6, ~30% without AnxA2): ~10%
cell surface localization of PCSK9 (PCSK9): reduced
PCSK9-V5 bound in pull-down (PCSK9-V5 [3]): bound PCSK9 and its furin cleaved form (PCSK9-Δ218)

peptide extending from amino acid 49 to 97: shorter AnxA2-derived peptide extending from amino acid 49 to 97 (KGVDEVTIVNILTNRSNAQRQDIAFAYQRRTKKELASALKSALSGHLET; HOMO SAPIENS)
inhibitory activity on the PCSK9-LDLR ectodomain interaction (PCSK9-LDLR interaction): inhibits the interaction between PCSK9 and the ectodomain of LDLR however to a lesser extent

GSVKAYTNFDAERDALNIETAIKTKGVDEVTIVNILTNRSNAQRQDIAFAYQRRTKKELASALKSALSGHLET [No 896970, 73-mer AnxA2 R1 peptide extending from amino acids 25 to 97]
inhibition of the PCSK9-LDLR interaction (PCSK9-LDLR interaction; 10 uM (not shown)): up to 90%

AnxA2: wild type human Annexin A2 isoform 2, expressed in cells by transfection
PCSK9-V5 binding by Far Western blot (PCSK9-V5 [1]; lysates of cells overexpressing the construct): specifically binds
increase of LDLR level (LDLR [4]; HepG2, AnxA2 co-transfected with p11): ~90%
increase of LDLR level (LDLR [4]; HepG2 transfected with AnxA2 alone): ~40%
levels of endogenous LDLR (LDLR [5]): None of these treatments affected the levels of endogenous LDLR
labelling intensity of cell surface LDLR (LDLR [6]; HepG2, AnxA2 alone or together with p11, vs pIRES control): strong increase
LDLR-lowering effect of WT-PCSK9 or PCSK9-D374Y (LDLR [6]; HepG2, co-expression with AnxA2): prevented their LDLR-lowering effect
LDLR level [7]: returned to that of the control

B1: AnxA1-(His)6: purified His-tagged Annexin A1 purchased from EMD biosciences (protein)
chain: MAMVSEFLKQAWFIENEEQEYVQTVKSSKGGPGSAVSPYPTFNPSSDVAALHKAIMVKGVDEATIIDILTKRNNAQRQQIKAAYLQETGKPLDETLKKALTGHLEEVVLALLKTPAQFDADELRAAMKGLGTDEDTLIEILASRTNKEIRDINRVYREELKRDLAKDITSDTSGDFRNALLSLAKGDRSEDFGVNEDLADSDARALYEAGERRKGTDVNVFNTILTTRSYPQLRRVFQKYTKYSKHDMNKVLDLELKGDIEKCLTAIVKCATSKPAFFAEKLHQAMKGVGTRHKALIRIMVSRSEIDMNDIKAFYQKMYGISLCQAILDETKGDYEKILVALCGGNHHHHHH
PCSK9-V5 bound in pull-down (PCSK9-V5 [3]): does not

B2: AnxA1: human Annexin A1, closely related family member used as control (protein, UniProt P04083 2-346, looked up)
Annexin A1: AMVSEFLKQAWFIENEEQEYVQTVKSSKGGPGSAVSPYPTFNPSSDVAALHKAIMVKGVDEATIIDILTKRNNAQRQQIKAAYLQETGKPLDETLKKALTGHLEEVVLALLKTPAQFDADELRAAMKGLGTDEDTLIEILASRTNKEIRDINRVYREELKRDLAKDITSDTSGDFRNALLSLAKGDRSEDFGVNEDLADSDARALYEAGERRKGTDVNVFNTILTTRSYPQLRRVFQKYTKYSKHDMNKVLDLELKGDIEKCLTAIVKCATSKPAFFAEKLHQAMKGVGTRHKALIRIMVSRSEIDMNDIKAFYQKMYGISLCQAILDETKGDYEKILVALCGGN
co-immunoprecipitation with PCSK9-V5 (PCSK9-V5 [8]): not
levels of endogenous LDLR (LDLR [5]): None of these treatments affected the levels of endogenous LDLR
